# Test results as given in patent publication US9925231B2, “Formulations of guanylate cyclase C agonists and methods of use” (SYNERGY PHARMACEUTICALS, INC., priority 2010, dated 2018).
# Where a SMILES comes first, the peptide text is derived from it. Bridges are numbered along the chain shown (N, C = ends).
# Columns and labels:
# [1] = tested on: patients with chronic idiopathic constipation (CIC); type: in vivo
# Experimental: (§1) A randomized, double-blind, placebo-controlled, 14-day repeat oral, dose ranging study was conducted in patients with chronic idiopathic constipation (CIC). […] One secondary objective was to assess the pharmacokinetic profile of SP-304 in plasma.
# (§2) Subjects diagnosed with CIC were screened for the anticipated 4 cohorts to yield 80 randomized subjects for enrollment. […] Subjects who continued to meet all the entry criteria and complete the pre-treatment bowel movement (BM) diary received, in a double-blind, randomized fashion, SP-304 or matching placebo. The entry criteria included (1) meeting modified ROME III criteria for chronic constipation (CC); (2) no significant finding in colonoscopy within past 5 years; (3) good health as determined by physical examination, medical history, vital signs, ECG, clinical chemistry, hematology, urinalysis, drug screen and serology assessments; and (4) during 14-day pre-treatment period, subjects reporting <6 SBM and <3 CSBM in each pre-treatment week.
# (§3) The majority of adverse events were mild/moderate and transient in nature. […] The table below is a GI-related adverse event (AE) summary.
# [2] = Clinical study in CIC patients: pharmacokinetic profile of SP-304 in plasma; type: in vivo, Humans; conditions: oral, 14 days, assay sensitivity ≥10 ng/mL
# Experimental: as §1, §2, §3
# [3] = tested on: patients with chronic idiopathic constipation (CIC); experiment: Clinical study in CIC patients: pharmacodynamic effects (efficacy), bowel habits; type: in vivo, Humans; conditions: for time to first bowel movement: after daily dose
# Experimental: as §1, §2
# [4] = Excipient compatibility: percent purity (HPLC) of SP-304 in binary mixtures stored at 40 C/75RH; type: physicochemical
# From the text: For solid excipients the binary mixtures were comprised of 9.1% or 50% excipient. Glass vials were stored at 40 C/75RH open or closed.
# [5] = 14-day repeat oral dosing, CIC patients
# [6] = daily treatment 14 days, CIC patients
structure (smiles),measurement,setting,value
"CC(C)C[C@H](NC(=O)[C@@H]1CSSC[C@@H]2NC(=O)[C@H](CC(C)C)NC(=O)[C@H](CCC(=O)O)NC(=O)[C@@H](NC(=O)[C@H](CCC(=O)O)NC(=O)[C@H](CC(=O)O)NC(=O)[C@@H](N)CC(N)=O)CSSC[C@H](NC(=O)[C@H](C)NC(=O)[C@H](C(C)C)NC(=O)[C@H](CC(N)=O)NC(=O)[C@H](C(C)C)NC2=O)C(=O)N[C@@H]([C@@H](C)O)C(=O)NCC(=O)N1)C(=O)O [SP-304, Asn^1-Asp^2-Glu^3-Cys^4-Glu^5-Leu^6-Cys^7-Val^8-Asn^9-Val^10-Ala^11-Cys^12-Thr^13-Gly^14-Cys^15-Leu^16] (H-NDECELCVNVACTGCL-OH; disulfide 4-12, 7-15)",deaths,[1]; [5],no deaths reported
same,serious adverse events (SAE),[1]; [5],No serious adverse events
same,diarrhea,"[1]; human, in vivo",no diarrhea reported
same,subjects reporting GI-related adverse events considered as related to treatment,"[1]; human, in vivo",5.2%
same,subjects reporting adverse events considered as related to the treatment,"[1]; human, in vivo",17.2%
same,systemic absorption of plecanatide,[2],no detectable systemic absorption
same,stool consistency,"[3]; Bristol Stool Form Scale, daily treatment 14 days",improved
same,time to first bowel movement,[3]; CIC patients,decreased
same,time to first bowel movement,"[3]; CIC patients, listed as Plecanatide",reduced
same,abdominal discomfort,[3]; [6],reduced
same,stool frequency (CSBM),[3]; [6],increased
same,stool frequency (SBM),[3]; [6],increased
same,straining,[3]; [6],reduced
same,"percent purity of SP-304 (HPLC), Closed 1 M","[4]; closed glass vial, 1 month",91.4%
same,"percent purity of SP-304 (HPLC), Closed 2 M","[4]; closed glass vial, 2 months",88.2%
same,"percent purity of SP-304 (HPLC), Open 0.5 M","[4]; open glass vial, 0.5 month",93.7%
same,"percent purity of SP-304 (HPLC), Open 1 M","[4]; open glass vial, 1 month",91.2%
same,"percent purity of SP-304 (HPLC), Open 2 M","[4]; open glass vial, 2 months",88.2%
same,"percent purity of SP-304 (HPLC), Open 3 M","[4]; open glass vial, 3 months",84.8%
